PubChem BioAssay AID256 (DTP/NCI, 2004)
“And” between values parts separate entries of the source, which are not always exact repeats. Identical values can stand only once. Inconclusive results and toxic doses are left out. The calls were made as follows: active = survival T/C of 150% or more; inactive = T/C below 125% in these data.

Test system: CD2F1 mice, L1210 leukemia ip, survival T/C
Assay: NCI In Vivo Anticancer Drug Screen. Data for tumor model L1210 Leukemia (intraperitoneal) in CD2F1 (CDF1) mice
Conditions: higher = longer survival
How it was run: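 Tumor-bearing mice (transplanted tumor) were split into treated and vehicle control groups, and the measured endpoint of each treated group was divided by that of its vehicle controls.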

[1] = endpoint: mean survival time, dose: 100.0 mg/kg/injection, schedule: Q04DX003 (ip), vehicle: saline with Tween-80
[2] = endpoint: mean survival time, dose: 200.0 mg/kg/injection, schedule: Q04DX003 (ip), vehicle: saline with Tween-80
[3] = endpoint: mean survival time, dose: 400.0 mg/kg/injection, schedule: Q04DX003 (ip), vehicle: saline with Tween-80
[4] = endpoint: mean survival time, dose: 100.0 mg/kg/injection, schedule: Q01DX001 (ip), vehicle: Klucel (hydroxypropylcellulose) (HPC)
[5] = endpoint: mean survival time, dose: 100.0 mg/kg/injection, schedule: Q01DX009 (ip), vehicle: saline with Tween-80
[6] = endpoint: mean survival time, dose: 200.0 mg/kg/injection, schedule: Q01DX001 (ip), vehicle: Klucel (hydroxypropylcellulose) (HPC)
[7] = endpoint: mean survival time, dose: 200.0 mg/kg/injection, schedule: Q01DX009 (ip), vehicle: saline with Tween-80
[8] = endpoint: mean survival time, dose: 400.0 mg/kg/injection, schedule: Q01DX001 (ip), vehicle: Klucel (hydroxypropylcellulose) (HPC)
[9] = endpoint: mean survival time, dose: 400.0 mg/kg/injection, schedule: Q01DX009 (ip), vehicle: saline with Tween-80

Measured: T/C

C[n+]1cccc(NC(=O)COc2ccc(Cl)c(Cl)c2)c1
inactive: endpoint: mean survival time, dose: 25.0 mg/kg/injection, schedule: Q04DX003 (ip), vehicle: saline with Tween-80 106 % of control | endpoint: mean survival time, dose: 50.0 mg/kg/injection, schedule: Q04DX003 (ip), vehicle: saline with Tween-80 104 % of control | [1] 97 % of control and 104 % of control

COC(=O)C1(C)CCCC2(C)C1CCC1(O)C(O)C(C(C)C)=CCC21 (stereo unspecified)
inactive: [1] 92 % of control | [2] 93 % of control | [3] 92 % of control

CC(=O)OC1CCC2(C)C(=CCC3C2CCC2(C)C(C(C)C(=O)O)CCC32)C1 (stereo unspecified)
inactive: endpoint: mean survival time, dose: 100.0 mg/kg/injection, schedule: Q01DX001 (ip), vehicle: saline with Tween-80 102 % of control | endpoint: mean survival time, dose: 200.0 mg/kg/injection, schedule: Q01DX001 (ip), vehicle: saline with Tween-80 100 % of control | endpoint: mean survival time, dose: 400.0 mg/kg/injection, schedule: Q01DX001 (ip), vehicle: saline with Tween-80 96 % of control

CC1=NC2=Nc3cc[n+](C4OC(CO)C(O)C4O)c(=O)n3CC2=CN1C (stereo unspecified)
inactive: endpoint: median survival time, dose: 12.5 mg/kg/injection, schedule: Q01DX005 (ip), vehicle: water 107 % of control | endpoint: median survival time, dose: 25.0 mg/kg/injection, schedule: Q01DX005 (ip), vehicle: water 105 % of control | endpoint: median survival time, dose: 50.0 mg/kg/injection, schedule: Q01DX005 (ip), vehicle: water 105 % of control | endpoint: median survival time, dose: 100.0 mg/kg/injection, schedule: Q01DX005 (ip), vehicle: water 105 % of control and 107 % of control | endpoint: median survival time, dose: 200.0 mg/kg/injection, schedule: Q01DX005 (ip), vehicle: water 103 % of control and 105 % of control | endpoint: median survival time, dose: 400.0 mg/kg/injection, schedule: Q01DX005 (ip), vehicle: water 104 % of control

CCOC(=O)c1c[nH]c2ccc([N+](=O)[O-])cc2c1=O
inactive: [4] 111 % of control | [5] 97 % of control | [1] 90 % of control | [6] 96 % of control | [7] 100 % of control | [2] 91 % of control | [8] 100 % of control | [9] 94 % of control | [3] 88 % of control

CCOC(=O)/C(C#N)=N\O
inactive: endpoint: mean survival time, dose: 100.0 mg/kg/injection, schedule: Q01DX001 (ip), vehicle: saline 102 % of control

C=C(Br)CN=C=S
inactive: endpoint: mean survival time, dose: 12.5 mg/kg/injection, schedule: Q04DX003 (ip), vehicle: saline 94 % of control | endpoint: mean survival time, dose: 25.0 mg/kg/injection, schedule: Q04DX003 (ip), vehicle: saline 94 % of control | endpoint: mean survival time, dose: 50.0 mg/kg/injection, schedule: Q04DX003 (ip), vehicle: saline 88 % of control

COc1ccc(-c2c(C(=O)NCCc3ccccc3)[nH]c(-c3ccccc3)c2-c2ccccc2)cc1
inactive: endpoint: mean survival time, dose: 75.0 mg/kg/injection, schedule: Q01DX001 (ip), vehicle: saline 95 % of control | endpoint: mean survival time, dose: 150.0 mg/kg/injection, schedule: Q01DX001 (ip), vehicle: saline 98 % of control

Br/C1=C/CCCCCC1
inactive: endpoint: mean survival time, dose: 37.5 mg/kg/injection, schedule: Q01DX009 (ip), vehicle: saline 94 % of control | endpoint: mean survival time, dose: 75.0 mg/kg/injection, schedule: Q01DX009 (ip), vehicle: saline 94 % of control | endpoint: mean survival time, dose: 150.0 mg/kg/injection, schedule: Q01DX009 (ip), vehicle: saline 104 % of control

O=c1cn[nH]c2cc(Cl)ccc12
inactive: [5] 91 % of control | [1] 100 % of control | [7] 101 % of control | [2] 105 % of control | [9] 92 % of control | [3] 97 % of control

COc1cc(O)c(Cc2ccccc2O)c(O)c1C(=O)CCc1ccccc1
inactive: endpoint: mean survival time, dose: 1.25 mg/kg/injection, schedule: Q01DX009 (ip), vehicle: saline with Tween-80 105 % of control | endpoint: mean survival time, dose: 2.5 mg/kg/injection, schedule: Q01DX009 (ip), vehicle: saline with Tween-80 100 % of control | endpoint: mean survival time, dose: 5.0 mg/kg/injection, schedule: Q01DX009 (ip), vehicle: saline with Tween-80 97 % of control | endpoint: mean survival time, dose: 10.0 mg/kg/injection, schedule: Q01DX009 (ip), vehicle: saline with Tween-80 105 % of control | endpoint: mean survival time, dose: 20.0 mg/kg/injection, schedule: Q01DX009 (ip), vehicle: saline with Tween-80 100 % of control

C[Si](C)(C)n1nnn(-c2ccccc2)c1=O
inactive: endpoint: mean survival time, dose: 12.5 mg/kg/injection, schedule: Q01DX009 (ip), vehicle: saline with Tween-80 97 % of control and 100 % of control | endpoint: mean survival time, dose: 25.0 mg/kg/injection, schedule: Q01DX009 (ip), vehicle: saline with Tween-80 97 % of control | endpoint: mean survival time, dose: 50.0 mg/kg/injection, schedule: Q01DX009 (ip), vehicle: saline with Tween-80 97 % of control and 101 % of control | [5] 100 % of control and 103 % of control | [7] 100 % of control and 103 % of control | [9] 101 % of control

CCC(=O)O.CCC(=O)O.CCC(=O)O.CCC(=O)O.O=P1(N(CCCl)CCCl)NCCCO1.O=P1(N(CCCl)CCCl)NCCCO1.[Rh].[Rh] (stereo unspecified)
inactive: endpoint: mean survival time, dose: 0.5 mg/kg/injection, schedule: Q01DX001 (ip), vehicle: water 92 % of control | endpoint: mean survival time, dose: 1.0 mg/kg/injection, schedule: Q01DX001 (ip), vehicle: water 92 % of control | endpoint: mean survival time, dose: 2.0 mg/kg/injection, schedule: Q01DX001 (ip), vehicle: water 102 % of control | endpoint: mean survival time, dose: 4.0 mg/kg/injection, schedule: Q01DX001 (ip), vehicle: water 107 % of control

O=C1C=C(Nc2nc(O)cc(=O)[nH]2)c2ccccc2C1=O
inactive: endpoint: mean survival time, dose: 100.0 mg/kg/injection, schedule: Q01DX009 (ip), vehicle: Klucel (hydroxypropylcellulose) (HPC) 97 % of control

Cc1nc(N)nc(N)c1CCCOc1ccc(NC(=O)c2cccc(S(=O)(=O)F)c2)cc1
inactive: endpoint: mean survival time, dose: 12.5 mg/kg/injection, schedule: Q01DX009 (ip), vehicle: saline 101 % of control | endpoint: mean survival time, dose: 25.0 mg/kg/injection, schedule: Q01DX009 (ip), vehicle: saline 107 % of control | endpoint: mean survival time, dose: 50.0 mg/kg/injection, schedule: Q01DX009 (ip), vehicle: saline 107 % of control | endpoint: mean survival time, dose: 100.0 mg/kg/injection, schedule: Q01DX009 (ip), vehicle: saline 109 % of control | endpoint: mean survival time, dose: 100.0 mg/kg/injection, schedule: Q#A X018 (ip), vehicle: saline 90 % of control | endpoint: mean survival time, dose: 200.0 mg/kg/injection, schedule: Q01DX009 (ip), vehicle: saline 107 % of control

CC(=O)CC(=O)C(F)(F)F.CC(=O)CC(=O)C(F)(F)F.[Ni]
inactive: endpoint: median survival time, dose: 25.0 mg/kg/injection, schedule: Q04DX002 (ip), vehicle: saline with Tween-80 100 % of control | endpoint: median survival time, dose: 50.0 mg/kg/injection, schedule: Q04DX002 (ip), vehicle: saline with Tween-80 122 % of control

CCN=C(N)c1ncnnc1N
inactive: endpoint: mean survival time, dose: 100.0 mg/kg/injection, schedule: Q01DX001 (ip), vehicle: carboxymethylcellulose (CMC) 104 % of control | endpoint: mean survival time, dose: 200.0 mg/kg/injection, schedule: Q01DX001 (ip), vehicle: carboxymethylcellulose (CMC) 102 % of control | endpoint: mean survival time, dose: 400.0 mg/kg/injection, schedule: Q01DX001 (ip), vehicle: carboxymethylcellulose (CMC) 102 % of control

CC(C)(C)SC(=O)C1(C)OC1c1ccc([N+](=O)[O-])cc1 (stereo unspecified)
inactive: [4] 97 % of control | [6] 94 % of control | [8] 97 % of control

N#Cc1c(-c2ccccc2)c(-c2ccccc2)nn(CC(=O)O)c1=O
inactive: endpoint: median survival time, dose: 25.0 mg/kg/injection, schedule: Q01DX005 (ip), vehicle: distilled water + Tween-80 105 % of control | endpoint: median survival time, dose: 50.0 mg/kg/injection, schedule: Q01DX005 (ip), vehicle: distilled water + Tween-80 90 % of control | endpoint: median survival time, dose: 100.0 mg/kg/injection, schedule: Q01DX005 (ip), vehicle: distilled water + Tween-80 95 % of control | endpoint: median survival time, dose: 200.0 mg/kg/injection, schedule: Q01DX005 (ip), vehicle: distilled water + Tween-80 92 % of control

C/C=C(\Br)C(=O)O
inactive: endpoint: mean survival time, dose: 25.0 mg/kg/injection, schedule: Q04DX002 (ip), vehicle: saline with Tween-80 101 % of control | endpoint: mean survival time, dose: 50.0 mg/kg/injection, schedule: Q04DX002 (ip), vehicle: saline with Tween-80 101 % of control | endpoint: mean survival time, dose: 100.0 mg/kg/injection, schedule: Q04DX002 (ip), vehicle: saline with Tween-80 104 % of control
